# Test results: US3963707A, “Novel N-nitroso compounds, compositions containing such compounds, processes for their preparation and methods of treatment therewith, and novel intermediates” (Aktiebolaget Leo, priority 1973, dated 1976)
# Test system: Hepatoma AH 130
# Test: in vivo
# Parameters: species or system SPF Wistar rats
# Conditions: additional compounds, result in words
# Excerpt: The high activity against tumours is further illustrated in these experiments by comparisons with known antitumour agents used in the therapy. The therapeutic indexes (T.I.), i.e. the ratios LD50/ED50, are in all comparisons much more favourable with the compounds of the present invention.
# LD50 is the dose that caused a 50 percent lethality of the animals, ED50 is the dose that caused a 50 percent reduction of tumour size.
# The experimental design and the interpretation of the results have been in accordance with the standards set by the CCNSC (Cancer Chemotherapy Reports, January 1959 and December 1962), and by the DR&D (Cancer Chemotherapy Reports, September 1972, Vol. 3, No. 2).
# The way of administration is by the intraperitoneal route (i.p.) in each case.
# Experimental animals: SPF Wistar rats.
# Tumour implant: 5 × 10^6 tumour cells i.p.
# Therapy: One injection i.p. on the day following implantation.
# Termination: The animals are killed on the 8th day.
# Evaluation: Weights of tumours of test animals compared with those of control animals.
row,SMILES,anti-tumor activity
1,C[C@]12CC[C@@H](OC(=O)N(CCF)N=O)C[C@H]1CC[C@@H]1[C@@H]2CC[C@]2(C)C(=O)CC[C@@H]12 [etiocholanolone-3α-N-(2-fluoroethyl)-N-nitroso carbamate],exhibit anti-tumor activity
2,Cc1ccc(N(C(=O)Oc2ccc3c(c2)CC[C@@H]2[C@@H]3CC[C@]3(C)C(=O)CC[C@@H]23)C(=O)N(CCCl)N=O)cc1 [estrone-3-/N^2-(4-methylphenyl)-N^4-(2-chloroethyl)-N^4-nitroso allophanate/],exhibit anti-tumor activity
3,C[C@]12C=CC(=O)C=C1CC[C@@H]1[C@@H]2[C@@H](OC(=O)N(CCCl)N=O)C[C@@]2(C)[C@H]1CC[C@]2(O)C(=O)COP(=O)(O)O [prednisolone-11β-/N-(2-chloroethyl)-N-nitroso carbamate/-21-dihydrogenphosphate],exhibit anti-tumor activity
4,C#C[C@]1(OC(C)=O)CC[C@H]2[C@@H]3CCC4=C[C@@H](OC(=O)N(CCCC)C(=O)N(CCCl)N=O)CC[C@@H]4[C@H]3CC[C@@]21C [ethynodiol-17β-acetate-3β-/N^2-n-butyl-N^4-(2-chloroethyl)-N^4-nitroso allophanate/],exhibit anti-tumor activity
5,C#C[C@]1(OC(C)=O)CC[C@H]2[C@@H]3CCC4=C[C@@H](OC(=O)N(CCF)N=O)CC[C@@H]4[C@H]3CC[C@@]21C [ethynodiol-17β-acetate-3β-N-(2-fluoroethyl)-N-nitroso carbamate],exhibit anti-tumor activity
6,CC(=O)[C@H]1CC[C@H]2[C@@H]3CC=C4C[C@@H](OC(=O)N(CCF)N=O)CC[C@]4(C)[C@H]3CC[C@]12C [pregnenolone-3β-N-(2-fluoroethyl)-N-nitroso carbamate],exhibit anti-tumor activity
7,"C=CC[C@]1(OC(=O)N(CCCl)N=O)CC[C@H]2[C@@H]3CCC4=CCCC[C@@H]4[C@H]3CC[C@@]21C [17α-allyl-estr-4-en-17β-ol,17β-N-(2-chloroethyl)-N-nitroso carbamate]",exhibit anti-tumor activity
8,CC(=O)[C@H]1CC[C@H]2[C@@H]3CC=C4C[C@@H](OC(=O)N(C(=O)N(CCCl)N=O)C5CCC(C)CC5)CC[C@]4(C)[C@H]3CC[C@]12C (stereo partly drawn) [pregnenolone-3β-/N^2-(4-methylcyclohexyl)-N^4-(2-chloroethyl)-N^4-nitroso allophanate/],exhibit anti-tumor activity
9,CCOP(=O)(O)O[C@H]1CC[C@H]2[C@@H]3CCc4cc(OC(=O)N(CCCl)N=O)ccc4[C@H]3CC[C@]12C [estradiol-17β-ethyl hydrogen phosphate-3-N-(2-chloroethyl)-N-nitroso carbamate],exhibit anti-tumor activity
10,"C[C@@H]1CC2=CC(=O)CC[C@]2(C)[C@H]2CC[C@@]3(C)[C@@H](CC[C@]3(C)OC(=O)N(CCCl)N=O)[C@H]12 [7α,17α-dimethyltestosterone-17β-N-(2-chloroethyl)-N-nitroso carbamate]",exhibit anti-tumor activity
11,C[C@]12CC[C@@H]3c4ccc(OC(=O)N(CCCl)N=O)cc4CC[C@H]3[C@@H]1CC[C@@H]2OP(=O)(O)Oc1ccccc1 [estradiol-17β-phenyl hydrogen phosphate-3-N-(2-chloroethyl)-N-nitroso carbamate],exhibit anti-tumor activity
12,CC1CCC(N(C(=O)O[C@H]2CC[C@@]3(C)C(=CC[C@@H]4[C@@H]3CC[C@]3(C)C(=O)CC[C@@H]43)C2)C(=O)N(CCCl)N=O)CC1 (stereo partly drawn) [dehydroepiandrosterone-3β-/N^2-(4-methylcyclohexyl)-N^4-(2-chloroethyl)-N^4-nitroso allophanate/],exhibit anti-tumor activity
13,C#C[C@]1(OC(=O)N(CCCl)N=O)CC[C@H]2[C@@H]3CCC4=C[C@@H](O)CC[C@@H]4[C@H]3CC[C@@]21C [ethynodiol-17β-N-(2-chloroethyl)-N-nitroso carbamate],exhibit anti-tumor activity
14,"CC(=O)[C@@]1(O)CC[C@H]2[C@@H]3C=C(Cl)C4=C[C@@H](OC(=O)N(CCCl)N=O)CC[C@]4(C)[C@H]3CC[C@@]21C [6-chloro-pregna-4,6-diene-3β,17α-diol-20-one,3β-N-(2-chloroethyl)-N-nitroso carbamate]",exhibit anti-tumor activity
15,CCOP(=O)(O)O[C@H]1CC[C@H]2[C@@H]3CC=C4C[C@@H](OC(=O)N(CCCl)N=O)CC[C@]4(C)[C@H]3CC[C@]12C [androstenediol-3β-/N-(2-chloroethyl)-N-nitroso carbamate/-17β-ethyl hydrogen phosphate],exhibit anti-tumor activity
16,C#C[C@]1(OC(=O)N(CCCl)N=O)CC[C@H]2[C@@H]3CCC4=C[C@@H](OP(=O)(O)Oc5ccccc5)CC[C@@H]4[C@H]3CC[C@@]21C [ethynodiol-17β-N-(2-chloroethyl)-N-nitroso carbamate-3β-phenylhydrogen phosphate],exhibit anti-tumor activity
17,"CC(C)CCC[C@@H](C)[C@H]1CC[C@H]2[C@@H]3CC=C4C[C@@H](OC(=O)N(CCCl)C(=O)N(CCCl)N=O)CC[C@]4(C)[C@H]3CC[C@]12C [cholesterol-3β-/N^2,N^4-bis (2-chloroethyl)-N^4-nitroso allophanate/]",exhibit anti-tumor activity
18,CC1CCC(N(C(=O)Oc2ccc3c(c2)CC[C@@H]2[C@@H]3CC[C@]3(C)C(=O)CC[C@@H]23)C(=O)N(CCCl)N=O)CC1 (stereo partly drawn) [estrone-3-/N^2-(4-methylcyclohexyl)-N^4-(2-chloroethyl)-N^4-nitroso allophanate/],exhibit anti-tumor activity
19,CC(C)(C)C(=O)OCC(=O)[C@@]1(O)CC[C@H]2[C@@H]3CCC4=CC(=O)C=C[C@]4(C)[C@H]3[C@@H](OC(=O)N(CCCl)N=O)C[C@@]21C [prednisolone-11β-/N-(2-chloroethyl)-N-nitroso carbamate/-21-pivalate],exhibit anti-tumor activity
20,CC(=O)[C@H]1CC[C@H]2[C@@H]3CC=C4C[C@@H](OC(=O)N(C(=O)N(CCCl)N=O)C5CCCCC5)CC[C@]4(C)[C@H]3CC[C@]12C [pregnenolone-3β-/N^2-cyclohexyl-N^4-(2-chloroethyl)-N^4-nitroso allophanate/],exhibit anti-tumor activity
21,"CC(=O)[C@@]1(OC(=O)N(CCCl)N=O)CC[C@H]2[C@@H]3C=C(Cl)C4=CC(=O)CC[C@]4(C)[C@H]3CC[C@@]21C [6-chloro-6-dehydro-17α-hydroxyprogesterone,17α-N-(2-chloroethyl)-N-nitroso carbamate]",exhibit anti-tumor activity
22,CCCCCCOc1ccc(CCC(=O)O[C@H]2CC[C@H]3[C@@H]4CC=C5C[C@@H](OC(=O)N(CCCl)N=O)CC[C@]5(C)[C@H]4CC[C@]23C)cc1 [androstenediol-17β-p-hexoxyphenylpropionate-3β-N-(2 -chloroethyl)-N-nitroso carbamate],exhibit anti-tumor activity
23,COc1ccc2c(c1)CC[C@@H]1[C@@H]2CC[C@]2(C)[C@@H](OC(=O)N(C)C(=O)N(CCCl)N=O)CC[C@@H]12 [estradiol-3-methylether-17β-/N^2-methyl-N^4-(2-chloroethyl)-N^4-nitroso allophanate],exhibit anti-tumor activity
24,C[C@]12CC[C@H]3[C@@H](CC=C4C[C@@H](OC(=O)N(CCCl)N=O)CC[C@@]43C)[C@@H]1CC[C@@H]2OS(=O)(=O)O [androstenediol-3β-/N-(2-chloroethyl)-N-nitroso carbamate/-17β-sodium sulphate],exhibit anti-tumor activity
